Results on three compounds are retold here after patent US20070111966A1, “Method for the treatment and/or prevention of urinary disorders” (priority 2005, published 2007).

Where only a bound is given, the exact number is not on record here.

The test system of assay [1] is Sprague-Dawley rats. In words: Example 1: diuresis after oral gavage of diuretic polyols. The settings on record: for Diuresis 45 min / Diuresis 1 h 35 min / Diuresis 3 h / Diuresis 5 h / Diuresis 7 h / Cumulative diuresis over 24 h / Diuresis Before gavage: means on ten rats; for Diuresis 45 min: control A 0.9; for Diuresis 1 h 35 min / Diuresis 7 h: control A 0.6; for Diuresis 3 h: control A 0.4; for Diuresis 5 h: control A 0.7; for Cumulative diuresis over 24 h: control A 11.7; for Diuresis Before gavage: control A 3.2. Format: in vivo. As for the experimental part:
(§1) A batch of rats were orally administered doses of diuretic polyols so as to measure the diuretic effect of said polyols and their possible influence on the amount of water drunk. The study was carried out on a batch of thirty rats, for 4 days, and the trial doses were administered at a rate of 2 ml per animal and per day of solutions at 250 g/litre of polyols. Water is distributed to the animals ad libitum. The amounts of urine output and of drink consumed are measured by weighing.
(§2) The amounts of drink are expressed in grams per animal and per day. Diuresis is expressed in millilitres as a function of time. • Batch A: control batch • Batch B: erythritol gavage • Batch C: mannitol gavage • Batch D: isosorbide gavage • Batch E: 1/1 isosorbide-mannitol mixture
Diuresis (Means on Ten Rats, in Millilitres)

The test system of assay [2] is Sprague-Dawley rats. In words: Example 1: consumption of drink after oral gavage of diuretic polyols. Format: in vivo. The settings on record: for water consumption compared with the control (in words): after polyol gavage; for water consumption over four days: control batch A 11.2. As for the experimental part:
as §1, §2
Consumption of Drink (Means on Ten Rats)

[3] abbreviates: gavage 2 ml per animal and per day of 250 g/litre solution, means on ten rats.

With `OC[C@@H](O)[C@@H](O)CO` [B (erythritol), erythritol], in the assay on Sprague-Dawley rats [1], the “Diuresis 45 min” value was determined as 0.21 millilitres, the “Diuresis 1 h 35 min” value was determined as 0.99 millilitres, the “Diuresis 3 h” value came out at 1.38 millilitres and the “Diuresis 5 h” value was determined as 1.21 millilitres. Moreover, in the assay with Sprague-Dawley rats [1], the “Diuresis 7 h” value was 0.83 millilitres, the “Cumulative diuresis over 24 h” value amounted to 18.43 millilitres and the “Diuresis Before gavage” value stood at 1.02 millilitres. In addition, in the assay with Sprague-Dawley rats [1] (after gavage), the “time from which an increase in diuresis is observed” value is not below 3 h. Moreover, the “water consumption compared with the control (in words)” value in the assay with Sprague-Dawley rats [2] is “not greater than the control”. In the assay on Sprague-Dawley rats [2] (gavage 2 ml per animal and per day of 250 g/litre solution, means on ten rats, control batch A 24.8), this compound returned a water consumption of 17.9 g/animal/day.

With `O[C@@H]1CO[C@H]2[C@@H]1OC[C@@H]2O` [D (isosorbide), isosorbide], in the assay on Sprague-Dawley rats [1], the “Diuresis 45 min” value is 1.5 millilitres, the “Diuresis 1 h 35 min” value came out at 1.1 millilitres, the “Diuresis 3 h” value turned out to be 1.2 millilitres and the “Diuresis 5 h” value came to 1.1 millilitres. In the assay with Sprague-Dawley rats [1], the “Diuresis 7 h” value was 0.6 millilitres, the “Cumulative diuresis over 24 h” value stood at 13.0 millilitres and the “Diuresis Before gavage” value turned out to be 2.4 millilitres. In the assay with Sprague-Dawley rats [2], the “water consumption compared with the control (in words)” value is on record as “very slightly greater than the control”. Further, the “water consumption over four days” value in the assay with Sprague-Dawley rats [2] (setting [3]) was 13.1 g/animal/day.

Turning to `OC[C@@H](O)[C@@H](O)[C@H](O)[C@H](O)CO` [C (mannitol), mannitol], in the assay on Sprague-Dawley rats [1], the “Diuresis 45 min” value is recorded as 0.3 millilitres, the “Diuresis 1 h 35 min” value came to 0.3 millilitres, the “Diuresis 3 h” value is given as 0.7 millilitres and the “Diuresis 5 h” value was 0.5 millilitres. For the same compound, in the assay with Sprague-Dawley rats [1], the “Diuresis 7 h” value is listed as 1.3 millilitres, the “Cumulative diuresis over 24 h” value turned out to be 16.5 millilitres and the “Diuresis Before gavage” value was 3.0 millilitres. Further, the “water consumption compared with the control (in words)” value with Sprague-Dawley rats [2] is listed as “very slightly greater than the control”. For the same compound, the “water consumption over four days” value in the assay with Sprague-Dawley rats [2] (setting [3]) amounted to 13.9 g/animal/day.
